Assays:
Assay type in all cases: in vivo
Avena fatua (AVEFA) [1] = assay: Post-emergence herbicidal activity, glasshouse pot test; details: Avena fatua, 312 h, rate 250 g/ha, evaluated after 13 days, read-out: Post-emergence activity AVEFA (100=total damage to plant; 0=no damage to plant)
Experimental: (§1) Seeds of a variety of test species were sown in standard soil in pots. After cultivation for one day (pre-emergence) or after 8 days cultivation (post-emergence) under controlled conditions in a glasshouse (at 24/16° C., day/night; 14 hours light; 65% humidity), the plants were sprayed with an aqueous spray solution derived from the formulation of the technical active ingredient in acetone/water (50:50) solution containing 0.5% Tween 20 (polyoxyethelyene sorbitan monolaurate, CAS RN 9005-64-5). The test plants were then grown in a glasshouse under controlled conditions in a glasshouse (at 24/16° C., day/night; 14 hours light; 65% humidity) and watered twice daily. After 13 days for pre and post-emergence, the test was evaluated (100=total damage to plant; 0=no damage to plant).
(§2) Lolium perenne (LOLPE), Alopecurus myosuroides (ALOMY), Echinochloa crus-galli (ECHCG), and Avena fatua (AVEFA).

Lolium perenne (LOLPE) [2] = assay: as above; details: Lolium perenne, 312 h, rate 250 g/ha, evaluated after 13 days, read-out: Post-emergence activity LOLPE (100=total damage to plant; 0=no damage to plant)
Experimental: as §1, §2

[3] = tested on: Echinochloa crus-galli (ECHCG); assay: as above; details: Echinochloa crus-galli, 312 h, rate 250 g/ha, evaluated after 13 days, read-out: Post-emergence activity ECHCG (100=total damage to plant; 0=no damage to plant)
Experimental: as §1, §2

[4] = tested on: Alopecurus myosuroides (ALOMY); assay: as above; details: Alopecurus myosuroides, 312 h, rate 250 g/ha, evaluated after 13 days, read-out: Post-emergence activity ALOMY (100=total damage to plant; 0=no damage to plant)
Experimental: as §1, §2

Avena fatua (AVEFA) [5] = assay: Pre-emergence herbicidal activity, glasshouse pot test; details: Avena fatua, 312 h, Rate 250 g/ha, evaluated after 13 days, read-out: Pre-emergence activity AVEFA (100=total damage to plant; 0=no damage to plant)
Experimental: as §1, §2

Lolium perenne (LOLPE) [6] = assay: as above; details: Lolium perenne, 312 h, Rate 250 g/ha, evaluated after 13 days, read-out: Pre-emergence activity LOLPE (100=total damage to plant; 0=no damage to plant)
Experimental: as §1, §2

[7] = tested on: Echinochloa crus-galli (ECHCG); assay: as above; details: Echinochloa crus-galli, 312 h, Rate 250 g/ha, evaluated after 13 days, read-out: Pre-emergence activity ECHCG (100=total damage to plant; 0=no damage to plant)
Experimental: as §1, §2

[8] = tested on: Alopecurus myosuroides (ALOMY); assay: as above; details: Alopecurus myosuroides, 312 h, Rate 250 g/ha, evaluated after 13 days, read-out: Pre-emergence activity ALOMY (100=total damage to plant; 0=no damage to plant)
Experimental: as §1, §2

Structure (SMILES) | pest or weed control at 250 g/ha (Avena fatua (AVEFA) [1]; glasshouse) [%] | pest or weed control at 250 g/ha (Lolium perenne (LOLPE) [2]; glasshouse) [%] | pest or weed control at 250 g/ha ([3]; glasshouse) [%] | pest or weed control at 250 g/ha ([4]; glasshouse) [%] | pest or weed control at 250 g/ha (Avena fatua (AVEFA) [5]; pre-emergence spray) [%] | pest or weed control at 250 g/ha (Lolium perenne (LOLPE) [6]; pre-emergence spray) [%] | pest or weed control at 250 g/ha ([7]; pre-emergence spray) [%] | pest or weed control at 250 g/ha ([8]; pre-emergence spray) [%] | pest or weed control at 250 g/ha (Avena fatua (AVEFA) [1]) [%] | pest or weed control at 250 g/ha (Lolium perenne (LOLPE) [2]) [%] | pest or weed control at 250 g/ha [3] [%] | pest or weed control at 250 g/ha [4] [%] | pest or weed control at 250 g/ha (Avena fatua (AVEFA) [5]; pre-emergence) [%] | pest or weed control at 250 g/ha (Lolium perenne (LOLPE) [6]; pre-emergence) [%] | pest or weed control at 250 g/ha ([7]; pre-emergence) [%] | pest or weed control at 250 g/ha ([8]; pre-emergence) [%]
CCc1ccc(Oc2ncc(Cl)cc2C(F)(F)F)cc1C1=C(O)CC2(CCOCC2)CC1=O [Example A-268] | 90 | 70 | 100 | 90 | 80 | 100 | 100 | 90 |  |  |  |  |  |  |  | 
CCc1ccc(Oc2ccc([N+](=O)[O-])c(C(F)(F)F)c2)cc1C1=C(O)C(C)(C)OC(C)(C)C1=O [Example A-197] | 70 | 60 | 100 | 70 | 10 | 20 | 30 | 0 |  |  |  |  |  |  |  | 
CCc1ccc(Oc2ccc(Cl)cc2Cl)cc1C1=C(O)C(C)(C)OC(C)(C)C1=O [Example A-19] | 60 | 90 | 100 | 60 | 70 | 80 | 100 | 50 |  |  |  |  |  |  |  | 
CCc1ccc(Oc2ccc(Br)c(Cl)c2)cc1C1=C(O)C(C)(C)OC(C)(C)C1=O [Example A-10] | 90 | 100 | 100 | 100 | 20 | 30 | 90 | 0 |  |  |  |  |  |  |  | 
CCc1ccc(Oc2nc3ccccc3s2)cc1C1=C(O)CC(C)(C)CC1=O [Example A-286] | 90 | 100 | 100 | 100 | 40 | 100 | 100 | 90 |  |  |  |  |  |  |  | 
CCc1ccc(Oc2ccc(F)c(F)c2)cc1C1=C(O)C(C)(C)OC(C)(C)C1=O [Example A-177] | 20 | 40 | 70 | 0 | 0 | 30 | 60 | 0 |  |  |  |  |  |  |  | 
CCc1ccc(Oc2ncc(Cl)cc2C(F)(F)F)cc1C1=C(O)[C@H]2CC[C@H](C2)C1=O [Example A-346] |  |  |  |  |  |  |  |  | 90 | 90 | 100 | 70 | 90 | 100 | 100 | 100
CCc1ccc(Oc2cnc3ccccc3n2)cc1C1=C(O)C(C)(C)OC(C)(C)C1=O [Example A-161] | 70 | 90 | 100 | 100 | 50 | 90 | 100 | 70 |  |  |  |  |  |  |  | 
CCc1ccc(Oc2ccc(Cl)c(F)c2)cc1C1=C(O)[C@H]2CC[C@H](C2)C1=O [Example A-249] | 100 | 70 | 100 | 90 | 60 | 90 | 90 | 60 |  |  |  |  |  |  |  | 
CCc1ccc(Oc2nc3cccc(C#N)c3s2)cc1C1=C(O)C(C)(C)OC(C)(C)C1=O [Example A-220] | 30 | 80 | 100 | 60 | 0 | 10 | 30 | 10 |  |  |  |  |  |  |  | 
CCc1ccc(Oc2nc3cc(Cl)ccc3s2)cc1C1=C(O)[C@H]2CC[C@H](C2)C1=O [Example A-339] | 90 | 100 | 100 | 100 | 80 | 90 | 100 | 100 |  |  |  |  |  |  |  | 
CCc1ccc(Oc2nc3ccc([N+](=O)[O-])cc3s2)cc1C1=C(O)[C@@H]2CC[C@](C)(C1=O)C2(C)C [Example A-325] | 30 | 40 | 100 | 50 | 20 | 90 | 100 | 60 |  |  |  |  |  |  |  | 
CCc1ccc(Oc2ccc(Cl)cc2F)cc1C1=C(O)C(C)(C)OC(C)(C)C1=O [Example A-15] | 70 | 100 | 100 | 90 | 60 | 100 | 100 | 100 |  |  |  |  |  |  |  | 
CCc1ccc(Oc2cnc3ccc(Br)cc3n2)cc1C1=C(O)C(C)(C)OC(C)(C)C1=O [Example A-104] | 80 | 90 | 100 | 90 | 30 | 100 | 100 | 90 |  |  |  |  |  |  |  | 
CCc1ccc(Oc2ccc(Br)c(Cl)c2)cc1C1=C(O)[C@H]2CC[C@H](C2)C1=O [Example A-247] | 100 | 100 | 100 | 90 | 50 | 90 | 100 | 90 |  |  |  |  |  |  |  | 
CCc1ccc(Oc2ccc(C#N)cc2F)cc1C1=C(O)C(C)(C)OC(C)(C)C1=O [Example A-21] | 60 | 70 | 100 | 100 | 0 | 20 | 30 | 0 |  |  |  |  |  |  |  | 
CCc1ccc(Oc2cnc3cc(Cl)ccc3n2)cc1C1=C(O)CC2(CCOCC2)CC1=O [Example A-233] | 100 | 100 | 100 | 100 | 70 | 90 | 100 | 70 |  |  |  |  |  |  |  | 
CCc1ccc(Oc2ccc(C(F)(F)F)cn2)cc1C1=C(O)CC(C)(C)CC1=O [Example A-83] | 100 | 60 | 100 | 90 | 90 | 90 | 100 | 70 |  |  |  |  |  |  |  | 

Source: patent publication US8865623B2, “Herbicidally active cyclic diones and derivatives thereof, processes for their preparation, compositions, and method of controlling weeds” (Syngenta Limited, priority 2009, dated 2014)
